Measurements from publication PMC6017461, “Multi-Target Anti-Alzheimer Activities of Four Prenylated Compounds from Psoralea Fructus” (Molecules : A Journal of Synthetic Chemistry and Natural …, 2018).

Biological target: T1, amyloid β-peptide 42 (Aβ42) (Homo sapiens, UniProt P05067)
T1 construct: gene APP; synthetic human Aβ42
Experiment: Thioflavin T fluorescence aggregation assay with synthetic Aβ[…], positive control
Type: biochemical

T1 sequence (P05067 672-713 limits assumed): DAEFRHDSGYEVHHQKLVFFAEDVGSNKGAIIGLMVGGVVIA

Structure (SMILES): COc1cc(/C=C/C(=O)CC(=O)/C=C/c2ccc(O)c(OC)c2)ccc1O [curcumin]
- Thioflavin T fluorescence aggregation assay with synthetic Aβ42, positive contro: which were comparable to the positive control curcumin
